Data from patent publication US4859776A, “(S)-7-(3-aminopyrrolidin-1-yl)-1-(ortho, para-difluorophenyl)-1,4-dihydro-6-fluoro-4-oxo-1,8-naphthyridine-3-carb oxylic acid and method for its preparation” (Abbott Laboratories, priority 1988, dated 1989).

How the values were obtained:
E. Coli Juhl = assay: Mouse protection test, E. Coli Juhl; format: in vivo; details: Escherichia coli
Source text: (§1) The differences in in vivo antibacterial activity of racemic (R,S) compound (A) versus the (S) enantiomeric form of compound (A) are shown in Table I. |POTENCY OF (A) IN MOUSE PROTECTION TESTS | ED50 (mg/kg/day)

P. Aeruginosa 5007 = assay: Mouse protection test, P. Aeruginosa 5007; format: in vivo; details: Pseudomonas aeruginosa
Source text: as §1

S. Aureus NCTC 10649 = assay: Mouse protection test, S. Aureus NCTC 10649; format: in vivo; details: Staphylococcus aureus
Source text: as §1

[1] = racemic mixture; J. Med. Chem., 29, 2363 (1986); cited from earlier work
[2] = one enantiomeric form vs the other form; background statement; cited from earlier work

NC1CCN(c2nc3c(cc2F)c(=O)c(C(=O)O)cn3-c2ccc(F)cc2F)C1 (racemic) [(R,S)--(A), 7-(3-aminopyrrolidin-1-yl)-1-(o,p-difluorophenyl)-1,4-dihydro-6-fluoro-4-oxo-1,8-naphthyridine-3-carboxylic acid]
ED50 (E. Coli Juhl; oral): 1.2 mg/kg | ED50 (E. Coli Juhl; sc, subcutaneous): 0.3 mg/kg | ED50 (P. Aeruginosa 5007; oral): 16 mg/kg | ED50 (P. Aeruginosa 5007; sc, subcutaneous): > 20 mg/kg | ED50 (S. Aureus NCTC 10649; NCTC10649, oral): 1 mg/kg | ED50 (S. Aureus NCTC 10649; NCTC10649, sc, subcutaneous): 0.4 mg/kg | antibacterial properties [1]: has been shown to exhibit antibacterial properties

N[C@H]1CCN(c2nc3c(cc2F)c(=O)c(C(=O)O)cn3-c2ccc(F)cc2F)C1 [(S)--(A), (S)-7-(3-aminopyrrolidin-1-yl)-1-(o,p-difluorophenyl)-1,4-dihydro-6-fluoro-4-oxo-1,8-naphthyridine-3-carboxylic acid]
ED50 (E. Coli Juhl; oral): 0.8 mg/kg | ED50 (E. Coli Juhl; sc, subcutaneous): 0.2 mg/kg | ED50 (P. Aeruginosa 5007; oral): 12.1 mg/kg | ED50 (P. Aeruginosa 5007; sc, subcutaneous): 8.6 mg/kg | ED50 (S. Aureus NCTC 10649; NCTC10649, oral): 0.8 mg/kg | ED50 (S. Aureus NCTC 10649; NCTC10649, sc, subcutaneous): 0.4 mg/kg

CNCC(O)c1ccc(O)c(O)c1 (centres unmarked) [adrenalin]
activity in raising blood pressure, one enantiomeric form versus the other [2]: over ten times more active
